According to publication PMC12090182, “Repurposing of the RIPK1-Selective Benzo[1,4]oxazepin-4-one Scaffold for the Development of a Type III LIMK1/2 Inhibitor” (ACS Chemical Biology, 2025):

Assays:
Assay in all cases: scanMAX KINOMEscan (Eurofins)
Type in all cases: binding
ABL1-phosphorylated = ABL1-phosphorylated (Homo sapiens, UniProt P00519); conditions: read-out: Percent Control
Source text: (§1) Supplement cb5c00097_si_002.xlsx, sheet "Table S6 (Eurofins Selectivity)" | column: Percent Control

BLK = BLK (Homo sapiens, UniProt P51451); conditions: 1000 nM, read-out: Percent Control
Source text: as §1

CAMK1 = CAMK1 (Homo sapiens, UniProt Q14012); conditions: read-out: Percent Control
Source text: as §1

CAMK2B = CAMK2B (Homo sapiens, UniProt Q13554); conditions: 1000 nM, read-out: Percent Control
Source text: as §1

CDC2L2 = CDC2L2 (Homo sapiens, UniProt Q9UQ88); conditions: 1000 nM, read-out: Percent Control
Source text: as §1

CDK5 = CDK5 (Homo sapiens, UniProt Q00535); conditions: read-out: Percent Control
Source text: as §1

CSF1R = CSF1R (Homo sapiens, UniProt P07333); conditions: read-out: Percent Control
Source text: as §1

CSNK1D = CSNK1D (Homo sapiens, UniProt P48730); conditions: 1000 nM, read-out: Percent Control
Source text: as §1

DCAMKL1 = DCAMKL1 (Homo sapiens, UniProt O15075); conditions: read-out: Percent Control
Source text: as §1

DYRK1A = DYRK1A (Homo sapiens, UniProt Q13627); conditions: 1000 nM, read-out: Percent Control
Source text: as §1

ERK1 = ERK1 (Homo sapiens, UniProt P27361); conditions: read-out: Percent Control
Source text: as §1

ERK5 = ERK5 (Homo sapiens, UniProt Q13164); conditions: 1000 nM, read-out: Percent Control
Source text: as §1

FLT3 = FLT3 (Homo sapiens, UniProt P36888); conditions: read-out: Percent Control
Source text: as §1

FLT3-autoinhibited = FLT3-autoinhibited (Homo sapiens, UniProt P36888); conditions: 1000 nM, read-out: Percent Control
Source text: as §1

HIPK1 = HIPK1 (Homo sapiens, UniProt Q86Z02); conditions: 1000 nM, read-out: Percent Control
Source text: as §1

HIPK4 = HIPK4 (Homo sapiens, UniProt Q8NE63); conditions: 1000 nM, read-out: Percent Control
Source text: as §1

ICK = ICK (Homo sapiens, UniProt Q9UPZ9); conditions: 1000 nM, read-out: Percent Control
Source text: as §1

IKK-epsilon = IKK-epsilon (Homo sapiens, UniProt Q14164); conditions: 1000 nM, read-out: Percent Control
Source text: as §1

[1] = biological target: JAK1(JH2domain-pseudokinase) (Homo sapiens, UniProt P23458); conditions: 1000 nM, read-out: Percent Control
Source text: as §1

LCK = LCK (Homo sapiens, UniProt P06239); conditions: 1000 nM, read-out: Percent Control
Source text: as §1

LKB1 = LKB1 (Homo sapiens, UniProt Q15831); conditions: 1000 nM, read-out: Percent Control
Source text: as §1

LOK = LOK (Homo sapiens, UniProt O94804); conditions: 1000 nM, read-out: Percent Control
Source text: as §1

MARK2 = MARK2 (Homo sapiens, UniProt Q7KZI7); conditions: 1000 nM, read-out: Percent Control
Source text: as §1

MLK3 = MLK3 (Homo sapiens, UniProt Q16584); conditions: 1000 nM, read-out: Percent Control
Source text: as §1

MYLK = MYLK (Homo sapiens, UniProt Q15746); conditions: 1000 nM, read-out: Percent Control
Source text: as §1

PIK3CA = PIK3CA (Homo sapiens, UniProt P42336); conditions: 1000 nM, read-out: Percent Control
Source text: as §1

PIK3CG = PIK3CG (Homo sapiens, UniProt P48736); conditions: 1000 nM, read-out: Percent Control
Source text: as §1

PIP5K1C = PIP5K1C (Homo sapiens, UniProt O60331); conditions: compound concentration 100 nM; Entrez PIP5K1C; read-out: Percent Control
Source text: as §1

PRKD3 = PRKD3 (Homo sapiens, UniProt O94806); conditions: 1000 nM, read-out: Percent Control
Source text: as §1

RET = RET (Homo sapiens, UniProt P07949); conditions: compound concentration 100 nM; Entrez RET; read-out: Percent Control
Source text: as §1

RIPK4 = RIPK4 (Homo sapiens, UniProt P57078); conditions: 1000 nM, read-out: Percent Control
Source text: as §1

ROCK2 = ROCK2 (Homo sapiens, UniProt O75116); conditions: 1000 nM, read-out: Percent Control
Source text: as §1

[2] = biological target: RPS6KA4(Kin.Dom.1-N-terminal) (Homo sapiens, UniProt O75676); conditions: compound concentration 100 nM; Entrez RPS6KA4; read-out: Percent Control
Source text: as §1

[3] = biological target: RSK3(Kin.Dom.2-C-terminal) (Homo sapiens, UniProt Q15349); conditions: compound concentration 100 nM; Entrez RPS6KA2; read-out: Percent Control
Source text: as §1

TRPM6 = TRPM6 (Homo sapiens, UniProt Q9BX84); conditions: compound concentration 100 nM; Entrez TRPM6; read-out: Percent Control
Source text: as §1

ULK3 = ULK3 (Homo sapiens, UniProt Q6PHR2); conditions: 1000 nM, read-out: Percent Control
Source text: as §1

YANK3 = YANK3 (Homo sapiens, UniProt Q86UX6); conditions: 1000 nM, read-out: Percent Control
Source text: as §1

Chain of CSF1R (P07333 20-972): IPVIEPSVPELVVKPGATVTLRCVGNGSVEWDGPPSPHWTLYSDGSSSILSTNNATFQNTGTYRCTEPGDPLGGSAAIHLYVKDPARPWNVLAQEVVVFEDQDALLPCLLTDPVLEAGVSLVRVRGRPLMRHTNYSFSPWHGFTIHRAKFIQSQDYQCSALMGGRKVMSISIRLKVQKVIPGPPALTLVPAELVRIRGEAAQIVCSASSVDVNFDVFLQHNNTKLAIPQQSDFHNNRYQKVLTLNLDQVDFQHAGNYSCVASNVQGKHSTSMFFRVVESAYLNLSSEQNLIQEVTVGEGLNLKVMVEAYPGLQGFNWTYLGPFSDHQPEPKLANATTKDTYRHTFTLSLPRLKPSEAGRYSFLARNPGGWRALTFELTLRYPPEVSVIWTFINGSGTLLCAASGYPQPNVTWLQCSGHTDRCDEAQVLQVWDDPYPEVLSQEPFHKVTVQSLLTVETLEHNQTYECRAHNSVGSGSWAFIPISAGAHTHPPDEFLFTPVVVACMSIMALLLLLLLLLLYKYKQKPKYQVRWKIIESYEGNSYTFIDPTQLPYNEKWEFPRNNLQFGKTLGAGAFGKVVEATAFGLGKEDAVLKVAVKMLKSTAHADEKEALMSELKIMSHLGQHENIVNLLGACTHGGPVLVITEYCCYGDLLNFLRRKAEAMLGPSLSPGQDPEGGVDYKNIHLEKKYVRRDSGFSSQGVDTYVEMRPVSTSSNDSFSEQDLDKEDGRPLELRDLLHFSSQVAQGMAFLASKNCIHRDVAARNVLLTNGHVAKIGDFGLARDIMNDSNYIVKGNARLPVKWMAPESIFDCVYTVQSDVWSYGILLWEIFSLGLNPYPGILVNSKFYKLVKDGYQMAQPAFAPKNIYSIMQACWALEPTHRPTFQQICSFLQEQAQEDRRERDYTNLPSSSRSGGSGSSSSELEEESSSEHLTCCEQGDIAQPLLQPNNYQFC
Chain of CAMK1 (Q14012 whole entry): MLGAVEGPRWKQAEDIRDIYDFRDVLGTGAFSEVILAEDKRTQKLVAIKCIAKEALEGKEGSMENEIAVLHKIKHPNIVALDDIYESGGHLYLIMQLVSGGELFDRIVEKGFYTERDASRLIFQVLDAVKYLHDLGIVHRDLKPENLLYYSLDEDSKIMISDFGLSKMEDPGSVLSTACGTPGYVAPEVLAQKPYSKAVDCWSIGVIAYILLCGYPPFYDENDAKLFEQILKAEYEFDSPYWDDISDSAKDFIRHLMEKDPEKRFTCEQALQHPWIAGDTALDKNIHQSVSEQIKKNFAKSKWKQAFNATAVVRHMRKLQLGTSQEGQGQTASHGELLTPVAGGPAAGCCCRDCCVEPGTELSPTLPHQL
Chain of ABL1-phosphorylated (P00519 whole entry): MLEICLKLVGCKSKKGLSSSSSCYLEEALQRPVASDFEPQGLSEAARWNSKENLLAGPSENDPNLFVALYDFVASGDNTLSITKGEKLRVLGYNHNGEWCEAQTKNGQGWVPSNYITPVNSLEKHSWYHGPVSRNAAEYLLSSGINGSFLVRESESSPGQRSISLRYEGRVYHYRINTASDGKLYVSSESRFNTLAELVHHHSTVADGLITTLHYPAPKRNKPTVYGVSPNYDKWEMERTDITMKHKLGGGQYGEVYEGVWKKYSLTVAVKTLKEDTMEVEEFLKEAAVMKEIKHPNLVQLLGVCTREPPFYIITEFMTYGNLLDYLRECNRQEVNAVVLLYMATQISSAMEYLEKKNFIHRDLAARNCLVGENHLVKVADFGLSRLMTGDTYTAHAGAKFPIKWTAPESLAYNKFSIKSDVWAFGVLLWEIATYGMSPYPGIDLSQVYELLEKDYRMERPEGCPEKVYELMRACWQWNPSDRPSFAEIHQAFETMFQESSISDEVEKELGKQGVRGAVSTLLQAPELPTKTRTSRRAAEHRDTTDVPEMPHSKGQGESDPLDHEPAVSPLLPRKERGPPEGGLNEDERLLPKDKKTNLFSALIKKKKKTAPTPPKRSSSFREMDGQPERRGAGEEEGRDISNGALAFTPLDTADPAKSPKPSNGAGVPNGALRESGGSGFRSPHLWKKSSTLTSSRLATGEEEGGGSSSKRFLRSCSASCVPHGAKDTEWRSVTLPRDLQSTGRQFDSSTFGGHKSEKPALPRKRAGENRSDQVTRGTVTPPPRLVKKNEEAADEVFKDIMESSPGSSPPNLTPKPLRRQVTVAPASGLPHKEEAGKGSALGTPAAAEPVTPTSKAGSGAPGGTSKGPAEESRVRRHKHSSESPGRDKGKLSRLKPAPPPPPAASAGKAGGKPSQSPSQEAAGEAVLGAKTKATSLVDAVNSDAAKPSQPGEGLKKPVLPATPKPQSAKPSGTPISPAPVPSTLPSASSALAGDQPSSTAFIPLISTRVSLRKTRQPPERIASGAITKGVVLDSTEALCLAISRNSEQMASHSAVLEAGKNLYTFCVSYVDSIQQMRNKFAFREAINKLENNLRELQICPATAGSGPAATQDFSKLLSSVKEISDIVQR
Chain of ERK1 (P27361 whole entry): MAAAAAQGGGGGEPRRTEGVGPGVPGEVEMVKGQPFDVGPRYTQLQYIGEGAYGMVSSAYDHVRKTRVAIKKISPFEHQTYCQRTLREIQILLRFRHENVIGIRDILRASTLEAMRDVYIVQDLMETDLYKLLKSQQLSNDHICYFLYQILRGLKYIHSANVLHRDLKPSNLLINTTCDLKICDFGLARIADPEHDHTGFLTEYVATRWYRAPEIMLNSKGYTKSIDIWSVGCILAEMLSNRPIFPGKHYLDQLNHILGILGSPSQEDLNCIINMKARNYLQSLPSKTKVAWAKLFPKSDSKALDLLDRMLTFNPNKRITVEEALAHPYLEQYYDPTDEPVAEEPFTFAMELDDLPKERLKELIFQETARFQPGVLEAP
Chain of DCAMKL1 (O15075 whole entry): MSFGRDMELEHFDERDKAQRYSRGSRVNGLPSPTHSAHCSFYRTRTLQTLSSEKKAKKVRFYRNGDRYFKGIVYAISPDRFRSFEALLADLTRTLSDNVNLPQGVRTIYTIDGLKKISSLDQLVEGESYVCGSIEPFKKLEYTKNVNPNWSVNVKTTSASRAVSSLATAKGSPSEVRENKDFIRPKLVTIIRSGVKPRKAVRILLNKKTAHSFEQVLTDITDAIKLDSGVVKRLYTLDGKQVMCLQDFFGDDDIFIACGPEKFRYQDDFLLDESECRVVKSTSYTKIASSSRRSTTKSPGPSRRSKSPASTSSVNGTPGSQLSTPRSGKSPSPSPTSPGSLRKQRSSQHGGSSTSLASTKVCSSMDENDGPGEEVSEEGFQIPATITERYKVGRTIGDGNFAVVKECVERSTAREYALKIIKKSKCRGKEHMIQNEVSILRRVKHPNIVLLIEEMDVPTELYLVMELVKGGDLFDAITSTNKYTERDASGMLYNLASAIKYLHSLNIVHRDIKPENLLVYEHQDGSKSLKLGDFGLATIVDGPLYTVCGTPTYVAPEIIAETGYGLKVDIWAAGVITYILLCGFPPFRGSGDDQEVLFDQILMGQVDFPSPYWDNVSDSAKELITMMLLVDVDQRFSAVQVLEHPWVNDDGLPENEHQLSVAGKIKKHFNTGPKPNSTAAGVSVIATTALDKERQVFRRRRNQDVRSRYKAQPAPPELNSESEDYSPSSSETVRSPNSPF
Chain of CDK5 (Q15078 whole entry): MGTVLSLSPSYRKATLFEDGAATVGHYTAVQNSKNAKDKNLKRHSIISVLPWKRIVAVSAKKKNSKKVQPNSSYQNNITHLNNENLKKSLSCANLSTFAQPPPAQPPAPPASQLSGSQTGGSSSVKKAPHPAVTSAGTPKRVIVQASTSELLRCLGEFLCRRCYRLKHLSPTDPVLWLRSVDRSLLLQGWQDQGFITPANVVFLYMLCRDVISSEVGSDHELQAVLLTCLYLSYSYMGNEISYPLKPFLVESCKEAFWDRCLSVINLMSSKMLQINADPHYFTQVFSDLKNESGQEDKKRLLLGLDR
Chain of CDK5 (Q00535 whole entry): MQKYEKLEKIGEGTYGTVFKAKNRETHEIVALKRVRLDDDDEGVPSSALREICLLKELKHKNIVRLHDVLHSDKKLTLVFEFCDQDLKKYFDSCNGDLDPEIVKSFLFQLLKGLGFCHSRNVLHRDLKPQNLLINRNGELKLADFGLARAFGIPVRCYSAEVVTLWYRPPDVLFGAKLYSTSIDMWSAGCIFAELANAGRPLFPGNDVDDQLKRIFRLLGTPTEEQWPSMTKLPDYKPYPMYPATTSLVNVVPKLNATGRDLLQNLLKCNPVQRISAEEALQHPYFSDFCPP
Chain of MARK2 (Q7KZI7 whole entry): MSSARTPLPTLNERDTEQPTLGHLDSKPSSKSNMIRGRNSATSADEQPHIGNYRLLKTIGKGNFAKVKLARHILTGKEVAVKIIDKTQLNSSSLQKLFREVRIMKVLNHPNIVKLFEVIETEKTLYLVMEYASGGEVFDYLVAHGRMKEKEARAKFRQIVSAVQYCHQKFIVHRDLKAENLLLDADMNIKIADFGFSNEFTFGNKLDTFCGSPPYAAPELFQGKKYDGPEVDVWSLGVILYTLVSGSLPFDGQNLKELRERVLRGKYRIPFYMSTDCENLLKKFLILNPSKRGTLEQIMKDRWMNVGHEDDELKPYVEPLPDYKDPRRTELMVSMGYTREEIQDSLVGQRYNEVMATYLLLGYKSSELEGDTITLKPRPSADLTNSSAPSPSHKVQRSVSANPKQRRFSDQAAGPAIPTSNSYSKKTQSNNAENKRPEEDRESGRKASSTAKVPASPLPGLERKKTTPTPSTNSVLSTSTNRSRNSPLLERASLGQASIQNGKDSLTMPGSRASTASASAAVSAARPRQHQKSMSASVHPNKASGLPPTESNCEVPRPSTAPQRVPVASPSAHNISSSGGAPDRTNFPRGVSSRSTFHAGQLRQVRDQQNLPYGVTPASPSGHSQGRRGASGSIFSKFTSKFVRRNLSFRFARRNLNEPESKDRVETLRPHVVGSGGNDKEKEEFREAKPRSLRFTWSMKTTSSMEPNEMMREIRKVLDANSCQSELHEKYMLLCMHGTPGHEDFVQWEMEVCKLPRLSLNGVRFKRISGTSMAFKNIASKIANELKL

In the case of CN1C(=O)[C@@H](N2CCc3c(nn(Cc4ccccc4)c3C(N)=O)C2=O)COc2cc(Cl)ccc21 [Compound 10, (S)-2-benzyl-6-(8-chloro-5-methyl-4-oxo-2,3,4,5-tetrahydrobenzo[b][1,4]oxazepin-3-yl)-7-oxo-4,5,6,7-tetrahydro-2H-pyrazolo[3,4-c]pyridine-3-carboxamide], the remaining binding at 1 µM (ABL1-phosphorylated; 1000 nM) is reported as 100%, the remaining binding at 0.1 µM (ABL1-phosphorylated; compound concentration 100 nM, Entrez ABL1) is reported as 97% and the remaining binding at 1 µM (BLK) is reported as 88%. For the same compound, the remaining binding at 1 µM (CAMK1; 1000 nM) was 100%, the remaining binding at 0.1 µM (CAMK1; compound concentration 100 nM, Entrez CAMK1) was 90% and the remaining binding at 1 µM (CAMK2B) was 80%. The remaining binding at 1 µM (CDC2L2) was 86%, the remaining binding at 1 µM (CDK5; 1000 nM) was 99% and the remaining binding at 0.1 µM (CDK5; compound concentration 100 nM, Entrez CDK5) was 78%. The remaining binding at 1 µM (CSF1R; 1000 nM) was 100%, the remaining binding at 0.1 µM (CSF1R; compound concentration 100 nM, Entrez CSF1R) was 83% and the remaining binding at 1 µM (CSNK1D) was 87%. It also gave a remaining binding at 1 µM (DCAMKL1; 1000 nM) of 100%, a remaining binding at 0.1 µM (DCAMKL1; compound concentration 100 nM, Entrez DCLK1) of 92% and a remaining binding at 1 µM (DYRK1A) of 93%. The remaining binding at 1 µM (ERK1; 1000 nM) was 100%, the remaining binding at 0.1 µM (ERK1; compound concentration 100 nM, Entrez MAPK3) was 93% and the remaining binding at 1 µM (ERK5) was 86%. The remaining binding at 1 µM (FLT3; 1000 nM) was 100%, the remaining binding at 0.1 µM (FLT3; compound concentration 100 nM, Entrez FLT3) was 96% and the remaining binding at 1 µM (FLT3-autoinhibited) was 94%. For the same compound, the remaining binding at 1 µM (HIPK1) was 93%, the remaining binding at 1 µM (HIPK4) was 87% and the remaining binding at 1 µM (ICK) was 85%. For the same compound, the remaining binding at 1 µM (IKK-epsilon) was 75%, the remaining binding at 1 µM [1] was 94% and the remaining binding at 1 µM (LCK) was 82%. The remaining binding at 1 µM (LKB1) was 88%, the remaining binding at 1 µM (LOK) was 97% and the remaining binding at 1 µM (MARK2) was 81%. The remaining binding at 1 µM (MLK3) was 92%, the remaining binding at 1 µM (MYLK) was 86% and the remaining binding at 1 µM (PIK3CA) was 92%. It also gave a remaining binding at 1 µM (PIK3CG) of 90%, a remaining binding at 0.1 µM (PIP5K1C) of 100% and a remaining binding at 1 µM (PRKD3) of 92%. It also gave a remaining binding at 0.1 µM (RET) of 100%, a remaining binding at 1 µM (RIPK4) of 83% and a remaining binding at 1 µM (ROCK2) of 74%. The remaining binding at 0.1 µM [2] was 81%, the remaining binding at 0.1 µM [3] was 100% and the remaining binding at 0.1 µM (TRPM6) was 100%. The remaining binding at 1 µM (ULK3) was 93% and the remaining binding at 1 µM (YANK3) was 92%.
